Reference: patent US7115608B2, “Pyridinone and pyridinethione derivatives having HIV inhibiting properties” (Centre National de la Recherche Schentifique, priority 2000, dated 2006)

Assays:
[1] = system: mock-infected MT-4 cells; assay: Cytotoxicity in mock-infected MT-4 cells (MTT); format: cell-based; conditions: concentration reducing absorbance of mock-infected MT-4 control by 50%
[2] = system: HIV-1; conditions: for IC50: dose achieving 50% protection of HIV-infected MT-4 cells, MTT, OD 540 nm; for SI: selectivity index, ratio of CC50 to IC50
Description: A rapid, sensitive and automated assay procedure was used for the in vitro evaluation of anti-HIV agents. […] Inhibition of the HIV-induced cytopathic effect was used as the end point. The viability of both HIV- and mock-infected cells was assessed spectrophotometrically via the in situ reduction of 3-(4,5-dimethylthiazol-2-yl)-2,5-diphenyltetrazolium bromide (MTT). […] The percent protection achieved by the compound in HIV-infected cells was calculated by the following formula:
[formula] expressed in %, whereby (ODT)HIV is the optical density measured with a given concentration of the test compound in HIV-infected cells; (ODC)HIV is the optical density measured for the control untreated HIV-infected cells; (ODC)MOCK is the optical density measured for the control untreated mock-infected cells; all optical density values were determined at 540 nm. […] The ratio of CC50 to IC50 was defined as the selectivity index (SI).

| Structure (SMILES) | CC50 [1] [nM] | IC50 [2] [nM] | SI [2] |
| --- | --- | --- | --- |
| Cc1cc(C)cc(Sc2c(CSCc3cccs3)c(C)[nH]c(=O)c2I)c1 [compound 8] | > 100000 | 10 | >10000 |
| Cc1cc(C)cc(Sc2c(/C=N/OCc3ccccc3)c(C)[nH]c(=O)c2I)c1 [compound 31] | > 100000 | 7.9 | >12589 |
| CON=Cc1c(C)[nH]c(=O)c(I)c1Sc1cc(C)cc(C)c1 [compound 46] | > 100000 | 2 | >50119 |
| CCc1c(C)[nH]c(=O)c(I)c1Oc1cc(C)cc(CCl)c1 [compound 81] | 13000 | 6.3 | 1995 |
| CCc1c(C)[nH]c(=O)c(I)c1Oc1cc(C)cc(/C=C/C#N)c1 [compound 83] | 8000 | 2.5 | 3162 |
| CCc1c(C)[nH]c(=O)c(I)c1Sc1cccc(C)c1 [compound 88] | > 100000 | 2.5 | >39811 |
| Cc1cc(C)cc(Oc2c(CSCc3ccccc3)c(C)[nH]c(=O)c2I)c1 [compound 92] | > 32000 | 6.3 | >5012 |
| CCOC(=O)CSCc1c(C)[nH]c(=O)c(I)c1Oc1cc(C)cc(C)c1 [compound 99] | > 100000 | 10 | >10000 |
| CCc1c(COC(N)=O)[nH]c(=O)c(I)c1Oc1cc(C)cc(C)c1 [compound 105] | > 10000 | 2 | >5012 |
| CCc1c(C)[nH]c(=O)c(Br)c1Sc1cc(C)cc(C)c1 [compound 109] | 32000 | 2.5 | 12589 |
| CCc1c(C)[nH]c(=O)c(I)c1Sc1cc(Cl)cc(Cl)c1 [compound 115] | 8000 | 2.5 | 3162 |
| CCc1c(C)[nH]c(=O)c(I)c1Oc1cccc(N)c1 [compound 121] | > 100000 | 10 | >10000 |
| CCSCc1c(C)[nH]c(=O)c(I)c1Oc1cc(C)cc(C)c1 [compound 124] | > 10000 | 1.3 | >7943 |
| Cc1cc(C)cc(Oc2c(C=CC#N)c(C)[nH]c(=O)c2I)c1 [compound 140] | > 10000 | 6.3 | >1585 |
| Cc1cc(C)cc(Oc2c(CNC(=O)c3cc4ccccc4o3)c(C)[nH]c(=O)c2I)c1 [compound 143] | > 10000 | 6.3 | >1585 |
| CCc1c(CCCO)[nH]c(=O)c(I)c1Oc1cc(C)cc(C)c1 [compound 217] | > 10000 | 6.3 | >1585 |
| CCOC(=O)NCc1c(C)[nH]c(=O)c(I)c1Oc1cc(C)cc(C)c1 [compound 218] | > 10000 | 7.9 | >1259 |
| Cc1cc(C)cc(Oc2c(CNC=O)c(C)[nH]c(=O)c2I)c1 [compound 219] | > 32000 | 10 | >3162 |
| Cc1cccc(Sc2c3c([nH]c(=O)c2I)CCCCC3)c1 [compound 221] | > 20000 | 6.3 | >3162 |
| Cc1cccc(Sc2c3c([nH]c(=O)c2I)CCCC3)c1 [compound 222] | 2000 | 7.9 | 251 |
| CCc1c(C)[nH]c(=O)c(C2CC2)c1Oc1cc(C)cc(C)c1 [compound 230] | 8000 | 6.3 | 1259 |

| Structure (SMILES) | CC50 [1] [nM] | IC50 [2] [nM] | SI [2] |
| --- | --- | --- | --- |
| CON=Cc1c(C)[nH]c(=O)c(I)c1Oc1cc(C)cc(C)c1 [compound 232] | > 32000 | 6.3 | >5012 |
| Cc1cc(C)cc(Oc2c(CCO)c(C)[nH]c(=O)c2I)c1 [compound 241] | > 100000 | 1.6 | >63096 |
| Cc1cc(C)cc(Oc2c(CCCO)c(C)[nH]c(=O)c2I)c1 [compound 242] | > 100000 | 0.6 | >158489 |
| Cc1cc(C)cc(Oc2c(COCc3ccsc3)c(C)[nH]c(=O)c2I)c1 [compound 244] | > 100000 | 4 | >25119 |
| Cc1cc(C)cc(Oc2c(COCc3ccccc3)c(C)[nH]c(=O)c2I)c1 [compound 245] | > 100000 | 6.3 | >15849 |
| COc1ccccc1Cc1c(C)[nH]c(=O)c(I)c1Oc1cc(C)cc(C)c1 [compound 249] | > 32000 | 1.3 | >25119 |
| Cc1cc(C)cc(Oc2c(CCCOCc3ccccc3)c(C)[nH]c(=O)c2I)c1 [compound 250] | 25000 | 5 | 5012 |
| COCCOCc1c(C)[nH]c(=O)c(I)c1Oc1cc(C)cc(C)c1 [compound 253] | > 10000 | 1.6 | >6310 |
| Cc1cc(C)cc(Oc2c(COCCO)c(C)[nH]c(=O)c2I)c1 [compound 254] | > 32000 | 2 | >15849 |
| CCOCc1c[nH]c(=O)c(I)c1Oc1cc(C)cc(C)c1 [compound 256] | > 10000 | 2 | >5012 |
| COCCc1c(C)[nH]c(=O)c(I)c1Oc1cc(C)cc(C)c1 [compound 264] | > 10000 | 1 | >10000 |
| CCc1c(C)[nH]c(=O)c(SC)c1Oc1cc(C)cc(C)c1 [compound 272] | 25000 | 2 | 12589 |
| CCc1c(C)[nH]c(=O)c(OC)c1Oc1cc(C)cc(C)c1 [compound 277] | > 100000 | 2.5 | >39811 |
| CCc1c(C)[nH]c(=O)c(Sc2ccccc2)c1Oc1cc(C)cc(C)c1 [compound 280] | 25000 | 10 | 2512 |
| CCc1c(C)[nH]c(=O)c(Br)c1Oc1cc(C)cc(C)c1 [compound 284] | > 10000 | 2 | >5012 |
| CCc1c(C)[nH]c(=O)c(I)c1Cc1cccc(C)c1 [compound 286] | > 32000 | 2.5 | >12589 |
| C=Cc1cccc(Oc2c(CC)c(C)[nH]c(=O)c2I)c1 [compound 296] | 25000 | 2 | 12589 |
| CCc1c(C)[nH]c(=O)c(I)c1Oc1cccc([N+](=O)[O-])c1 [compound 297] | > 32000 | 4 | >7943 |
| CCc1c(C)[nH]c(=O)c(I)c1Oc1cccc(/C=C/C=C/C#N)c1 [compound 299] | – | 2.5 | 32 |
| CCc1c(C)[nH]c(=O)c(I)c1Oc1cccc(C)c1 [compound 306] | > 32000 | 1.6 | >19953 |
| CCc1c(C)[nH]c(=O)c(I)c1Oc1cccc(Br)c1 [compound 307] | > 32000 | 5 | >6310 |

| Structure (SMILES) | CC50 [1] [nM] | IC50 [2] [nM] | SI [2] |
| --- | --- | --- | --- |
| CCc1c(C)[nH]c(=O)c(I)c1Oc1cccc(C=CC=NO)c1 [compound 309] | 10000 | 6.3 | 1585 |
| CCc1c[nH]c(=O)c(I)c1Oc1cccc(C)c1 [compound 314] | > 32000 | 7.9 | >3981 |
| CCc1c(C)[nH]c(=O)c(I)c1Oc1cccc(/C=C/C#N)c1 [compound 319] | > 100000 | 2 | >50119 |
| CCc1c(C)[nH]c(=O)c(I)c1Oc1cccc(C=O)c1 [compound 321] | > 100000 | 6.3 | >15849 |
| CCc1c(C)[nH]c(=O)c(I)c1Oc1cccc(CO)c1 [compound 322] | > 100000 | 6.3 | >15849 |
| CCOC(=O)c1c(Oc2cc(C)cc(C)c2)c(CC)c(C)[nH]c1=O [compound 324] | 32000 | 5 | 6310 |
| CCc1c(C)[nH]c(=O)c(I)c1Oc1ccccc1 [compound 328] | > 100000 | 1.6 | >63096 |
| Cc1cc(C)cc(Oc2c(CSCc3ccco3)c(C)[nH]c(=O)c2I)c1 [compound 375] | > 100000 | 1.3 | >79433 |
| CCc1c(C)[nH]c(=O)c(C(F)(F)F)c1Oc1cc(C)cc(C)c1 [compound 409] | 40000 | 3.2 | 12589 |
| CCc1c(C)[nH]c(=O)c(I)c1Oc1cc(C)cc(/C=C/C#N)c1 [compound 551] | 13000 | 1 | 12589 |
| Cc1cc(C)cc(Oc2c(Cn3cncn3)c(C)[nH]c(=O)c2I)c1 [compound 574] | > 100000 | 2 | >50119 |
| Cc1cc(C)cc(Sc2c(Cn3cccn3)c(C)[nH]c(=O)c2I)c1 [compound 589] | > 10000 | 1.3 | >7943 |
| Cc1cc(C)cc(Sc2c(Cn3ccnc3)c(C)[nH]c(=O)c2I)c1 [compound 606] | 20000 | 1.3 | 15849 |
| Cc1cc(C)cc(Sc2c(Cn3cccc3)c(C)[nH]c(=O)c2I)c1 [compound 618] | 50000 | 2 | 25119 |
| CCc1c(C)[nH]c(=O)c(I)c1Oc1cc(/C(C)=C/C#N)cc(/C(C)=C/C#N)c1 [compound 684] | > 100000 | 0.8 | >125893 |
| CC(=O)c1ccc(N2CCN(Cc3c(C)[nH]c(=O)c(I)c3Oc3cc(C)cc(C)c3)CC2)cc1 [compound 694] | 63000 | 10 | – |
| Cc1cc(C)cc(Oc2c(CN3CCN(c4ccccn4)CC3)c(C)[nH]c(=O)c2I)c1 [compound 696] | > 40000 | 15.8 | >2512 |
| Cc1cc(C)cc(Oc2c(CN3CCN(C(=O)c4ccco4)CC3)c(C)[nH]c(=O)c2I)c1 [compound 700] | > 8000 | 7.9 | >1000 |
| CC(=O)N1CCN(Cc2c(C)[nH]c(=O)c(I)c2Oc2cc(C)cc(C)c2)CC1 [compound 701] | 63000 | 10 | 6310 |
